Tested on: Trypanosoma cruzi
Experiment: Trypanocidal activity against Trypanosoma cruzi Y blood stream trypomastigotes after 24 hrs
Format: functional, organism-based

First: CC1(C)OC2=C(C(=O)C(=O)c3ccccc32)C1Nc1cccc(F)c1 (stereo not drawn)
Second: CC1(C)OC2=C(C(=O)C(=O)c3ccccc32)C1Nc1cccc(Br)c1 (stereo not drawn)
The IC50 of the first is higher: greater than 4000 µM for the first, 141 µM for the second.

First: CC1(C)OC2=C(C(=O)c3ccccc3C2=O)C1Nc1ccccc1 (stereo not drawn)
Second: CC1(C)CC(Nc2ccccc2)C2=C(O1)C(=O)c1ccccc1C2=O (stereo not drawn)
The IC50 of the first is higher: greater than 4000 µM for the first, 342 µM for the second. The second is the more potent here.

`CC1(C)CC2=C(O1)C(=O)c1ccccc1C2=O` and `CC1(C)CCC2=C(O1)C(=O)c1ccccc1C2=O` [ALPHA-LAPACHONE] cannot be ordered by IC50: greater than 4800 µM for the first, greater than 4800 µM for the second.

`CC1(C)OC2=C(C(=O)C(=O)c3ccccc32)C1Nc1cccc(Cl)c1` (stereo not drawn) and `CC1(C)OC2=C(C(=O)C(=O)c3ccccc32)C1Nc1ccc(Cl)cc1` (stereo not drawn) are within 1.5-fold of each other in IC50: 333 µM for the first, 384 µM for the second.

First: COc1ccc(NC2C3=C(OC2(C)C)c2ccccc2C(=O)C3=O)cc1 (stereo not drawn)
Second: CC1(C)OC2=C(C(=O)C(=O)c3ccccc32)C1Nc1ccc(F)cc1 (stereo not drawn)
The IC50 of the first is 29-fold lower: 88.2 µM for the first, 2520 µM for the second.

`CC1(C)OC2=C(C(=O)C(=O)c3ccccc32)C1O` (stereo not drawn) and `CC1(C)OC2=C(C(=O)c3ccccc3C2=O)C1N=[N+]=[N-]` (stereo not drawn) are within 1.5-fold of each other in IC50: 212 µM for the first, 179 µM for the second.

Compared with `CC1(C)OC2=C(C(=O)C(=O)c3ccccc32)C1Nc1ccc([N+](=O)[O-])cc1` (stereo not drawn), `CC1(C)OC2=C(C(=O)C(=O)c3ccccc32)C1Nc1cccc([N+](=O)[O-])c1` (stereo not drawn) is 9.9-fold lower in IC50: 857 µM for the first, 86.3 µM for the second. The second is the more potent here.

Compared with `Cc1ccc(C)c(NC2C3=C(OC2(C)C)c2ccccc2C(=O)C3=O)c1` (stereo not drawn), `CC1(C)OC2=C(C(=O)C(=O)c3ccccc32)C1Nc1ccc(Br)cc1` (stereo not drawn) is 1.8-fold lower in IC50: 1760 µM for the first, 952 µM for the second. The second is the more potent here.

Compared with `CC(C)=CCC1=C(O)C(=O)c2ccccc2C1=O` [LAPACHOL], `CC1(C)CC2=C(O1)C1(CO1)c1ccccc1C2=O` (stereo not drawn) is higher in IC50: 411 µM for the first, greater than 4000 µM for the second.
